According to patent US5316944A, “Enzymatic resolution of a racemic mixture of gamma-amino acids using penicillin acylase” (Merrell Dow Pharmaceuticals, priority 1992, dated 1994):

Columns and labels:
penicillin acylase = penicillin acylase (Escherichia coli, UniProt P06875); test: penicillin acylase-catalyzed hydrolysis of N-phenylacetyl derivatives; type: biochemical, E.coli; conditions: for E: E values calculated from the yields and the ee's of the (R)-enantiomers; for Reaction rate: [S] = 50 mm, pH 7.8, 25° C.
Source text: Here we report a simple procedure for the preparation of the enantiomers of γ-ethynyl GABA, γ-allenyl GABA, and γ-vinyl GABA by penicillin acylase-catalyzed hydrolysis of the corresponding N-phenylacetyl derivatives. Penicillin acylase (PA) from E.coli is used in industry for the preparation of 6-aminopenicillanic acid and semisynthetic β-lactam antibiotics (V. K. Svedas et al., Enzyme Microb. Technol., 2, 138 (1980)). PA is highly specific to phenylacetyl group and catalyzes its cleavage not only from penicillins, but also from amides, peptides, and esters (M. Cole, Biochem J., 115, 733 (1969); Ibid, 741; and, A. Czentirmai, Acta Microbiol. Acad. Sci. Hung., 12, 395 (1965/1966). The structure of the leaving group of the substrates hardly affects the rate constants of the hydrolytic reactions (M. Cole, Nature, 203, 519 (1964), and A. L. Margolin et al., Biochim. Biophys. Acta, 616, 283 (1980)). The enantioselectivity of PA was exploited in the preparation of amino acids (D. Rossi et al., Experientia, 33, 1557 (1977) and Ibid, 41, 35 (1985)), aminoalkylphosphonic acids (V. A. Solodenko et al., Tetrahedron, 47, 3989 (1991)), esters and alcohols (C. Fuganti et al., Tetrahedron Letters, 44, 2575 (1988), and H. Waldman, 30, 3057 (1989)), although the hydrolysis of an ester bond normally results in products with modest optical purity.
In a typical experiment, 0.7 g of penicillin acylase immobilized on Eupergit C, was suspended in a solution of (N-phenylacetyl)-vinyl GABA (1.0 g; 4 mmol) in 35 ml 0.1 M phosphate buffer, pH 7.8. The mixture was stirred at room temperature (r.t.) for 5 hours. Then the solution was adjusted to pH 2 and the remaining substrate was extracted with CH2 Cl2 to give (S)-(N-phenylacetyl)-vinyl GABA (organic layer) and (R)-γ-vinyl GABA (aqueous). Since the chemical deacylation of (S)-(N-phenylacetyl)-vinyl GABA under acid conditions results in the formation of byproducts the same enzyme was used for the deacylation of (S)-(N-phenylacetyl)-vinyl GABA. To achieve an effective hydrolysis, a larger amount of Eupergit-PA (1.5 g), higher reaction temperature (45° C.), and longer reaction time (2 days) were used. When the reaction was complete (HPLC) the Eupergit-PA was filtered off and phenylacetic acid was extracted with CH2 Cl2 from acidic solution (pH 2). The aqueous solution of both (R)- and (S)-γ-vinyl GABA were subjected to ion-exchange chromatography (Dowex 1×2- 100 (OH-)) followed by lyophilization. The enamtiomers of γ-ethynyl GABA and γ-allenyl GABA were prepared by the same procedure (Table 1).
^b [S] = 50 mm; pH 7.8:25° C.
^f The E values were calculated from the yields and the ee's of the
(R)enantiomers (C. S. Chen, et al., J. Am. Chem. Soc., 104, 7294 (1982)).

[1] = system: experimentally-induced seizures; conditions: compared with (S)-counterpart or racemic compound; cited from earlier work
GABA-T = conditions: known to elevate brain levels of GABA; cited from earlier work
[2] = which enantiomer is active; cited from earlier work

Chain of penicillin acylase (P06875 290-846): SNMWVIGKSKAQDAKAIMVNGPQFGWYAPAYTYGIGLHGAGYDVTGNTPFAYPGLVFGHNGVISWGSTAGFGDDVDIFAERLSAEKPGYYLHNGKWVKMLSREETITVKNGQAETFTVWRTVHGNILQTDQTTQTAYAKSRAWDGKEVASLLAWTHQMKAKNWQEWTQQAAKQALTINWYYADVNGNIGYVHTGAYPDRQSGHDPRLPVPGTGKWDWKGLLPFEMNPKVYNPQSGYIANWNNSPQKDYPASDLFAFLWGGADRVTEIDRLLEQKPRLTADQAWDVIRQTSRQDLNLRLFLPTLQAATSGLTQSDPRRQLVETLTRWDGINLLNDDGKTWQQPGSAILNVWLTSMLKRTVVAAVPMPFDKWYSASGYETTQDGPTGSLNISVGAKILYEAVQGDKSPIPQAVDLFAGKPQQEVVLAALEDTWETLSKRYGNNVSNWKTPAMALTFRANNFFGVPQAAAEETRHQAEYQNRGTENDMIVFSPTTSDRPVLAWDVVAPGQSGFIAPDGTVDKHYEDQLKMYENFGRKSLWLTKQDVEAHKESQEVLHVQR
Chain of penicillin acylase (P06875 27-235): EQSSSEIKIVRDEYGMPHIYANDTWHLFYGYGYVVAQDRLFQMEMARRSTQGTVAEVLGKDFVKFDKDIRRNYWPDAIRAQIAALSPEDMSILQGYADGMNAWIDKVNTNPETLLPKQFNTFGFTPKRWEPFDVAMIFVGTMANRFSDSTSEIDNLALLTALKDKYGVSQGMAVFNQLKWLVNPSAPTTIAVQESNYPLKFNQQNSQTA

With `C=C=CC(CCC(=O)O)NC(=O)Cc1ccccc1` (racemic) [Allenyl] the E (penicillin acylase) was 20 and the Reaction rate (penicillin acylase) was 46%.

`C#CC(CCC(=O)O)NC(=O)Cc1ccccc1` (racemic) [Ethynyl] gave an E (penicillin acylase) greater than 100 and a Reaction rate (penicillin acylase) of 100%.

For `C=CC(CCC(=O)O)NC(=O)Cc1ccccc1` (racemic) [Vinyl, (N-phenylacetyl)-vinyl GABA], the E (penicillin acylase) was 17 and the Reaction rate (penicillin acylase) was 39%.

In the case of `C#C[C@H](N)CCC(=O)O` [(R)-γ-ethynyl GABA], the “activity as an anticonvulsant agent” value [1] is listed as “more active”.

For `C=C=CC(N)CCC(=O)O` (stereo not drawn) [γ-allenyl GABA, 4-amino-hepta-5,6-dienoic acid], the “inhibition of GABA-T” value (GABA-T) is listed as “irreversible inhibitors” and the biological activity [2] is listed as “resides in the (S)-enantiomers”.

For `C#CC(N)CCC(=O)O` (stereo not drawn) [γ-ethynyl GABA, 4-aminohex-5-ynoic acid], the “inhibition of GABA-T” value (GABA-T) is listed as “irreversible inhibitors”.

For `C=CC(N)CCC(=O)O` (stereo not drawn) [γ-vinyl GABA, 4-aminohex-5-enoic acid], the “inhibition of GABA-T” value (GABA-T) is given as “irreversible inhibitors” and the biological activity [2] is given as “resides in the (S)-enantiomers”.
